pEC50, pKi: −log10 of the molar value. Like-named read-outs stand apart in the source and are kept apart here.
Assays:
PI3Kδ = PI3Kδ (Homo sapiens, UniProt O00329); experiment: PI3K binding assay (lipid kinase reaction, ADP-Glo), PI3K delta; format: biochemical
Procedure: (§1) Reactions are carried out using the following conditions for each PI3K isoform as in Table 5.
(§2) All reactions are carried out at room temperature. […] The reaction is started by the addition of 2 μL ATP/MgCl2. The kinase reaction buffer contains 50 mM HEPES, 50 mM NaCl 3 mM MgCl2, 0.01% BSA, 1% DMSO, and enzyme and substrate concentrations as indicated in the above table. The reaction is stopped by the addition of 10 μL ADP-Glo reagent. Plates are read in a Perkin Elmer Envision system using luminescence mode. 10 point dose response curves are generated for each test compound. Ki values for each compound are determined using the Morrison Equation.

P-PRAS40 SW48(E545K) = experiment: Inhibition of P-PRAS40 in SW48 isogenic cells, PI3Kα mutant E545K; format: cell-based; conditions: for pEC50: Homo sapiens, SW48, 24 hours of compound treatment, read-out: P-PRAS40 SW48(E545K) EC50; for Fold Selectivity for SW48(E545K) vs. SW48(parental): EC50 potency ratio
Procedure: (§3) All statistics were performed using KaleidaGraph Software (version 4.1.3). A Student t-Test was performed using unpaired data with equal variance to compare activity against mutant cells and wild-type cells. P<0.05 is considered to be significant.
(§4) The following assays are intended for determining the cellular potency and mutant selectivity of small molecule PI3Kα inhibitors. […] Mutant selectivity of PI3Kα inhibitors is determined by EC50 potency ratios in the WT vs. E545K cell lines and WT vs. H1047R cell lines.
(§5) The three cell lines (WT, E545K, and H1047R) are plated and assayed in parallel. The following day, test compounds are serially diluted in dimethyl sulfoxide (DMSO) and added to cells (final DMSO concentration 0.5%). […] Cell lysates are added to assay plates pre-coated with antibodies against phosphorylated PRAS40. Phosphorylated PRAS40 in samples are allowed to bind to the capture antibodies overnight at 4° C. The detection antibody (anti-total PRAS40, labeled with an electrochemiluminescent SULFO-TAG) is added to the bound lysate and incubated for 1 hour at room temperature. The MSD Read Buffer is added such that when a voltage is applied to the plate electrodes, the labels bound to the electrode surface emit light. The MSD Sector Instrument measures the intensity of the light, and quantitatively measures the amount of phosphor-PRAS40 in the sample. Percent inhibition of PRAS40 phosphorylation by varying concentrations of test compounds is calculated relative to untreated controls. EC50 values are calculated using the 4 parameter logistic nonlinear regression dose-response model.

P-PRAS40 SW48(H1047R) = experiment: Inhibition of P-PRAS40 in SW48 isogenic cells, PI3Kα mutant H1047R; format: cell-based; conditions: for pEC50: Homo sapiens, SW48, 24 hours of compound treatment, read-out: P-PRAS40 SW48(H1047R) EC50; for Fold Selectivity for SW48(H1047R) vs. SW48(parental): EC50 potency ratio
Procedure: as §3, §4, §5

PI3Kγ = PI3Kγ (Homo sapiens, UniProt P48736); experiment: PI3K binding assay (lipid kinase reaction, ADP-Glo), PI3K gamma; format: biochemical; conditions: Table 2A; first value of cell (ADP-Glo, Example 901)
PI3Kγ, sequence (P48736 whole entry): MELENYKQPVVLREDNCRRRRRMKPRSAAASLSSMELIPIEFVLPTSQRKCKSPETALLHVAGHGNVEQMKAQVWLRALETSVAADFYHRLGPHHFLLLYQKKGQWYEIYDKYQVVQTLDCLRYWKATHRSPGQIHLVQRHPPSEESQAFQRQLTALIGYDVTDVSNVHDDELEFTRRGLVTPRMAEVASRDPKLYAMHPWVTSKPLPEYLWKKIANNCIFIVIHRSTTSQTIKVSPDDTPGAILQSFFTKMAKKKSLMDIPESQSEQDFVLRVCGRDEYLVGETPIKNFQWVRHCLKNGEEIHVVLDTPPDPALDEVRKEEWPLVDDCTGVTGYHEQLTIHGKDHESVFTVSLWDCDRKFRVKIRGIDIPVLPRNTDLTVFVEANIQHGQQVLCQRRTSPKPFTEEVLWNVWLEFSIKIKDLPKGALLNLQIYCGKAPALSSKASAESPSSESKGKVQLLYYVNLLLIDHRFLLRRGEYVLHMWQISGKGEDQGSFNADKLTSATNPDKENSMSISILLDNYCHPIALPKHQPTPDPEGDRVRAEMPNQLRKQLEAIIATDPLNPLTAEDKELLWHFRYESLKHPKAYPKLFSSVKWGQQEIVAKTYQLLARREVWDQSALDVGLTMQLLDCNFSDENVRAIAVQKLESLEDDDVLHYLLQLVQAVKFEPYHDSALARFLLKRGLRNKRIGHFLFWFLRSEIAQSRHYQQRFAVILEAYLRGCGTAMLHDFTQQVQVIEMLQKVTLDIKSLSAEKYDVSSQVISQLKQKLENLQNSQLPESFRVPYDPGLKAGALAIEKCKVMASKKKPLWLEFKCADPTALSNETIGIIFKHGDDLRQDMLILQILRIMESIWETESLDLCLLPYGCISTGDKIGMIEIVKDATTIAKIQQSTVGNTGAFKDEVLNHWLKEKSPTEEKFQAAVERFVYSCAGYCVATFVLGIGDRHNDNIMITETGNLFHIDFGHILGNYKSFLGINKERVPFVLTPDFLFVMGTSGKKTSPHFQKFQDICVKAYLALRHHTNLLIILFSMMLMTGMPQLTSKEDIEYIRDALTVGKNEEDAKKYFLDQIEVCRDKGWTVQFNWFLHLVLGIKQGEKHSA
Procedure: as §1, §2

PI3Kα = PI3Kα (Homo sapiens, UniProt P42336); experiment: PI3K binding assay (lipid kinase reaction, ADP-Glo), PI3K alpha; format: biochemical; conditions: for pKi: read-out: PI3Kα Ki
PI3Kα, sequence (P42336 whole entry): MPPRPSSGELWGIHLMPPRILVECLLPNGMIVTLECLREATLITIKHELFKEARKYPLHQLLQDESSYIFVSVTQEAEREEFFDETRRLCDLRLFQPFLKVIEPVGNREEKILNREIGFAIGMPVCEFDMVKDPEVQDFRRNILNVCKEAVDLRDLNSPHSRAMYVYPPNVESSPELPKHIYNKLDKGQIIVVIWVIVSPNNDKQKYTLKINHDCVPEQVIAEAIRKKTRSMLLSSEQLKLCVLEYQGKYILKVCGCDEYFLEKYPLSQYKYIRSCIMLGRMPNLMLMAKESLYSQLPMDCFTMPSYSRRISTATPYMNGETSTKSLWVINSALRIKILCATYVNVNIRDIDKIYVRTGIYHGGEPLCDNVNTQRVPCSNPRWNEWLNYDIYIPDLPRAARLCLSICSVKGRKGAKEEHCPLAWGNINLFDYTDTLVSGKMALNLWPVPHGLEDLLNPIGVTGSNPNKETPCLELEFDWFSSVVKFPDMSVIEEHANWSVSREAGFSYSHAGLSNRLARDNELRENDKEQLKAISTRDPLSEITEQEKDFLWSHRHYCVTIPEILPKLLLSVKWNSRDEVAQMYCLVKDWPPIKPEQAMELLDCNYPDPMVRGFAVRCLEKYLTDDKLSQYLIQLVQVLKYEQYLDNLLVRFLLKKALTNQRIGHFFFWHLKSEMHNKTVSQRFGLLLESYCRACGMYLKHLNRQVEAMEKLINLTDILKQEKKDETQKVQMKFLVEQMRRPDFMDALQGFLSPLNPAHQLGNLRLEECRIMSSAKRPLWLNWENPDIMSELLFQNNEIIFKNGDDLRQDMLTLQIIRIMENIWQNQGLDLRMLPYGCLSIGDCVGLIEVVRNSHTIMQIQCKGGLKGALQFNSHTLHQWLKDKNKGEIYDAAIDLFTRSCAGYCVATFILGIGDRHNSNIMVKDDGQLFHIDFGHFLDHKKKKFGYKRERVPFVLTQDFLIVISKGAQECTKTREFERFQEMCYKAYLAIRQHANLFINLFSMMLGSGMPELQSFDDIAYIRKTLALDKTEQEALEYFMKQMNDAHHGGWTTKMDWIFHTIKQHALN
PI3Kα, sequence (P27986 whole entry partner): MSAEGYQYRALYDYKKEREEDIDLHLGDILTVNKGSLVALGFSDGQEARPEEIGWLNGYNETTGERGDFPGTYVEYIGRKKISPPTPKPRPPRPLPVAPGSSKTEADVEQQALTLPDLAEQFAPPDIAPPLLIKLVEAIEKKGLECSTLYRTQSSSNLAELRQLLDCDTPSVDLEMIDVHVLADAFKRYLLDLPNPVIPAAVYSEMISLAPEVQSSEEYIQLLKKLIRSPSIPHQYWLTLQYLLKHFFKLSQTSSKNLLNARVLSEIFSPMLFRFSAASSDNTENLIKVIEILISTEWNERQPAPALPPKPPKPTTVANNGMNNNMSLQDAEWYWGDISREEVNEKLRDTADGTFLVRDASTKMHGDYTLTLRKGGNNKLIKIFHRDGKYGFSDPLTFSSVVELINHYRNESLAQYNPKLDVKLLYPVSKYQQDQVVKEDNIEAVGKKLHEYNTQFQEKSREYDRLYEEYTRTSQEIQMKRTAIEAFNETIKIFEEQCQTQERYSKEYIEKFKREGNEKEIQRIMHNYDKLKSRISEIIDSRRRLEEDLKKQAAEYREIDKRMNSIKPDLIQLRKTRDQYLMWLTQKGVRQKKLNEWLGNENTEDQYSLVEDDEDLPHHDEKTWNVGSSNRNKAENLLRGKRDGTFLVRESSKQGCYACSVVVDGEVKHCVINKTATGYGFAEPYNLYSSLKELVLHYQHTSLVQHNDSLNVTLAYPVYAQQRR
Procedure: as §1, §2

PI3Kβ = PI3Kβ (Homo sapiens, UniProt P42338); experiment: PI3K binding assay (lipid kinase reaction, ADP-Glo), PI3K beta; format: biochemical; conditions: Table 2A; first value of cell (ADP-Glo, Example 901)
PI3Kβ, sequence (P42338 whole entry): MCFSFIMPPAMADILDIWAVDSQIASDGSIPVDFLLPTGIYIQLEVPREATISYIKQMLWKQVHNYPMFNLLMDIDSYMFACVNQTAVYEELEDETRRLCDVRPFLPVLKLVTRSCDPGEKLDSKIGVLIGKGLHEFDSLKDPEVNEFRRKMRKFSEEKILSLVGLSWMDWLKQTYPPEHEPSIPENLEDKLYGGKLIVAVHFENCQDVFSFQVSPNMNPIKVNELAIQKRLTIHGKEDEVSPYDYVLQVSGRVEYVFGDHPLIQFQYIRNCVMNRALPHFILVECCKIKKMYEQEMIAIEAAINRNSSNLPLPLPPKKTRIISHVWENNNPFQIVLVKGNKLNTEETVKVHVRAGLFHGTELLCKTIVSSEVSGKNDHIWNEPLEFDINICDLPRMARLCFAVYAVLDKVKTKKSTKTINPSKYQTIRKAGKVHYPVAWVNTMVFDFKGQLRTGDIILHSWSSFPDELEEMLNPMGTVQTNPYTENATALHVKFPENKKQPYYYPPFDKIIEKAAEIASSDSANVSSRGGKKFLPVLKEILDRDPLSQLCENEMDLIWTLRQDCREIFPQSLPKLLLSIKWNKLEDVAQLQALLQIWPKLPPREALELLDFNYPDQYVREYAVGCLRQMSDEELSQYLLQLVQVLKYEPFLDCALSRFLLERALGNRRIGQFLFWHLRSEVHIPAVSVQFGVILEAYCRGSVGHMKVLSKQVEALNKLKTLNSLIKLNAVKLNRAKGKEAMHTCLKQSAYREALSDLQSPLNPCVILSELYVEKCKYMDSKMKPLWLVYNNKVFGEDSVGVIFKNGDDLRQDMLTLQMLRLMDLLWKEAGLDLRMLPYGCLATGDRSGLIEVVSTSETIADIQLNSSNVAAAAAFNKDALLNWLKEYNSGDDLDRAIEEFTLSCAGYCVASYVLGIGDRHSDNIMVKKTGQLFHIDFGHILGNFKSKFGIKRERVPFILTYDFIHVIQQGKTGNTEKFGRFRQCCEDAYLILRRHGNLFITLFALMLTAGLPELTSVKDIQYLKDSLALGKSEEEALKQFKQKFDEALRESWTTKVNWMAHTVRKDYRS
PI3Kβ, sequence (P27986 whole entry partner): as the sequence (P27986 whole entry partner) above
Procedure: as §1, §2

P-PRAS40 SW48(parental) = experiment: Inhibition of P-PRAS40 in SW48 isogenic cells, PI3Kα wild-type (parental); conditions: Homo sapiens, SW48, 24 h
[1] = tested on: KPL4 cells (PI3Kα mutant H1047R); experiment: In vitro cell viability assay (Cell Titer-Glo), KPL4; conditions: KPL4, 96 h, read-out: KPL4 antiproliferative EC50 (μM)
[2] = Table 2A, first value of cell (ADP-Glo, Example 901)
[3] = Table 3A, p value (Student t-Test) given
[4] = Table 2A, selectivity ratio (fold)
[5] = read-out: P-PRAS40 SW48(parental) EC50 (nM)
[6] = Table 2B comparator compounds, first value of cell (ADP-Glo)
[7] = read-out: P-PRAS40 SW48(parental) EC50 (μM)

PI3Kδ, sequence (O00329 whole entry, canonical isoform): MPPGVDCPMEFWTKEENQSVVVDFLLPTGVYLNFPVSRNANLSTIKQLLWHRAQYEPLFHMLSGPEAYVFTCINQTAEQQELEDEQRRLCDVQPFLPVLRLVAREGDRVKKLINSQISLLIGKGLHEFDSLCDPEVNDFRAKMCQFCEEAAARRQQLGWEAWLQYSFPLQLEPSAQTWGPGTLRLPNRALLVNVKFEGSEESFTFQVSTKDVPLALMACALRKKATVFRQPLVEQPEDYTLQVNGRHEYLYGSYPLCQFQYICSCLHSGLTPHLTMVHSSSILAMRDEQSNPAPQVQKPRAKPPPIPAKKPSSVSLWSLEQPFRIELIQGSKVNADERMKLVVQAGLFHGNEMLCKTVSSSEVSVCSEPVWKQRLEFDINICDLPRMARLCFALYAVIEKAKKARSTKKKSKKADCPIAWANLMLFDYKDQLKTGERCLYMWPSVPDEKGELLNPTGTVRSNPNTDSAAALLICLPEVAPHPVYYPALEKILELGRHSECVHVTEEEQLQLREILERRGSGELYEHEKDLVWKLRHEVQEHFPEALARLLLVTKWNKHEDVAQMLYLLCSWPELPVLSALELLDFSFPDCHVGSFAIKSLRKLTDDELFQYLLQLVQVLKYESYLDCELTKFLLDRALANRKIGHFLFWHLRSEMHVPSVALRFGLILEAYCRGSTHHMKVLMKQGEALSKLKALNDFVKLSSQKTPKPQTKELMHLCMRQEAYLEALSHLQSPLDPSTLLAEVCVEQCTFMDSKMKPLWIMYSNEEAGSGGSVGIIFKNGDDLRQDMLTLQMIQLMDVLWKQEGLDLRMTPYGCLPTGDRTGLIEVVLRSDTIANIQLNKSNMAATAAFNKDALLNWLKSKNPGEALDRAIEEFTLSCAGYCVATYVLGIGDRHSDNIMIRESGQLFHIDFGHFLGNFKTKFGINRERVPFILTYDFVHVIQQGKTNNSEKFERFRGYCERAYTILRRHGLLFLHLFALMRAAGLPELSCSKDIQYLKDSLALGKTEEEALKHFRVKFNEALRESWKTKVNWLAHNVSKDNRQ
PI3Kδ, sequence (P27986 whole entry partner, canonical isoform): as the sequence (P27986 whole entry partner) above

Row | Structure (SMILES) | pKi (PI3Kδ; [6]) | pEC50 (P-PRAS40 SW48(E545K); Table 3B comparator compounds) | pEC50 (P-PRAS40 SW48(H1047R); Table 3B comparator compounds) | pKi (PI3Kδ; [2]) | pEC50 (P-PRAS40 SW48(E545K); Table 3A, geometric mean) | Fold Selectivity for SW48(E545K) vs. SW48(parental) (P-PRAS40 SW48(E545K); [3]) | pEC50 (P-PRAS40 SW48(H1047R); Table 3A, geometric mean) | Fold Selectivity for SW48(H1047R) vs. SW48(parental) (P-PRAS40 SW48(H1047R); [3]) | pKi (PI3Kγ) | pKi (PI3Kα; [2]) | pKi (PI3Kβ) | EC50 (P-PRAS40 SW48(parental); [5]) | EC50 (P-PRAS40 SW48(parental); [7]) | further results
1 | NC(=O)[C@@H]1CCCN1c1ccc2c(c1)OCCn1cc(N3C(=O)OC[C@H]3C(F)F)nc1-2 [Compound 106, (S)-1-(2-((S)-4-(Difluoromethyl)-2-oxooxazolidin-3-yl)-5,6-dihydrobenzo[f]imidazo[1,2-d][1,4]oxazepin-9-yl)pyrrolidine-2-carboxamide] | – | – | – | 8.74 | 8.57 | 2.1 (p < 0.001) | 8.54 | 1.9 (p < 0.001) | 7.69 | 10.28 | 7.27 | 5.5 nM | – | Selectivity for PI3Kα vs. PI3K-β (PI3Kα; [4]): 1008; Selectivity for PI3Kα vs. PI3Kγ (PI3Kα; [4]): 384; Selectivity for PI3Kα vs. PI3Kδ (PI3Kα; [4]): 34
2 | C[C@H](Oc1ccc2c(c1)OCCn1cc(N3C(=O)OC[C@H]3C(F)F)nc1-2)C(N)=O [Compound 107, (S)-2-((2-((S)-4-(Difluoromethyl)-2-oxooxazolidin-3-yl)-5,6-dihydrobenzo[f]imidazo[1,2-d][1,4]oxazepin-9-yl)oxy)propanamide] | – | – | – | 7.35 | 7.63 | 3.0 (p < 0.001) | 7.59 | 2.7 (p < 0.001) | 6.87 | 9.07 | 6.47 | 69.2 nM | – | Selectivity for PI3Kα vs. PI3K-β (PI3Kα; [4]): 400; Selectivity for PI3Kα vs. PI3Kγ (PI3Kα; [4]): 159; Selectivity for PI3Kα vs. PI3Kδ (PI3Kα; [4]): 52
3 | CC[C@@H]1COC(=O)N1c1cn2c(n1)-c1ccc(O[C@@H](C)C(N)=O)cc1OCC2 [Compound 104, (S)-2-((2-((R)-4-Ethyl-2-oxooxazolidin-3-yl)-5,6-dihydrobenzo[f]imidazo[1,2-d][1,4]oxazepin-9-yl)oxy)propanamide] | – | – | – | 7.30 | 6.94 | 2.5 (p = 0.003) | 6.96 | 2.6 (p = 0.003) | 6.54 | 8.57 | 6.07 | 335 nM | – | Selectivity for PI3Kα vs. PI3K-β (PI3Kα): 315; Selectivity for PI3Kα vs. PI3Kγ (PI3Kα): 107; Selectivity for PI3Kα vs. PI3Kδ (PI3Kα): 19
4 | CC(C)(O)Cn1cc(-c2ccc3c(c2)OCCc2sc(N4C(=O)OCC4(C)C)nc2-3)cn1 [356 (U.S. Pat. No. 8,263,633), reference compound] | 9.04 | 7.11 | 7.10 | – | – | – | – | – | – | – | – | – | 310 nM | Fold Selectivity for SW48(E545K) vs. SW48(parental) (P-PRAS40 SW48(E545K); Table 3B): 4.0 (p < 0.001); Fold Selectivity for SW48(H1047R) vs. SW48(parental) (P-PRAS40 SW48(H1047R); Table 3B): 3.9 (p < 0.001); Selectivity for PI3Kα vs. PI3Kδ (PI3Kα): 1; pKi (PI3Kα; [6]): 9.01
5 | NC(=O)[C@@H]1CCCN1c1ccc2c(c1)OCCn1cc(-c3ncnn3CC(F)(F)F)nc1-2 [Compound 469, reference compound] | 9.37 | 9.10 | 9.05 | – | – | – | – | – | – | – | – | – | 1 nM | Fold Selectivity for SW48(E545K) vs. SW48(parental) (P-PRAS40 SW48(E545K); Table 3B): 1.8 (p = 0.04); Fold Selectivity for SW48(H1047R) vs. SW48(parental) (P-PRAS40 SW48(H1047R); Table 3B): 1.6 (p = 0.11); pKi (PI3Kα; [6]): 10.60; Selectivity for PI3Kα vs. PI3Kδ (PI3Kα; Table 2B comparator compounds, selectivity ratio (fold)): 17

Further lines, with some results ahead:

Row | pKi (PI3Kδ; [6]) | pEC50 (P-PRAS40 SW48(E545K); Table 3B comparator compounds) | pEC50 (P-PRAS40 SW48(H1047R); Table 3B comparator compounds) | Structure (SMILES) | pKi (PI3Kδ; [2]) | pEC50 (P-PRAS40 SW48(E545K); Table 3A, geometric mean) | Fold Selectivity for SW48(E545K) vs. SW48(parental) (P-PRAS40 SW48(E545K); [3]) | pEC50 (P-PRAS40 SW48(H1047R); Table 3A, geometric mean) | Fold Selectivity for SW48(H1047R) vs. SW48(parental) (P-PRAS40 SW48(H1047R); [3]) | pKi (PI3Kγ) | pKi (PI3Kα; [2]) | pKi (PI3Kβ) | EC50 (P-PRAS40 SW48(parental); [5]) | EC50 (P-PRAS40 SW48(parental); [7]) | further results
6 | 8.11 | – | – | CC(C)n1ncnc1-c1cn2c(n1)-c1ccc(O[C@@H](C)C(N)=O)cc1OCC2 [Compound 436, reference compound] | – | – | – | – | – | – | – | – | – | – | EC50 [1]: 0.05 µM
7 | 7.95 | 7.80 | 7.74 | CCn1ncnc1-c1cn2c(n1)-c1ccc(O[C@@H](C)C(N)=O)cc1OCC2 [Compound 544, reference compound] | – | – | – | – | – | – | – | – | – | 47.7 nM | –
